This note sets out measurements from US4987126A, “3'-deamino-4'-deoxy-4'-amino anthracyclines” (Farmitalia Carlo Erba S.r.l., priority 1988, dated 1991).

Data set [1] relates to Murine Mammary ca. (MTV/DXR). The data set can be described thus: Effect against Murine Mammary ca. (MTV/DXR). In kind it is in vivo. As to conditions: C3H/He mice, i.v. once a week for three weeks, optimal dose (mg/Kg): DXR 6, IIa 5; for tumor inhibition: 1 week after last treatment. Here is the method: (§1) The compounds were tested by dissolving them, as hydrochlorides, in water.
^a experiment was carried out in C3H/He mice, transplanted s.c. with
(§2) ^b treatment i.v. was carried out once a week for three weeks,
(§3) starting when the tumor was palpable
(§4) ^c percentage of tumor growth inhibition in respect to control was
(§5) calculated 1 week after the last treatment

The next data set concerns murine Gross leukemia. Put plainly: Effect against murine Gross leukemia. In kind it is in vivo, murine (C3H/He mice). As to conditions: for T/C % (median survival time of treated mice/median survival time of control × 100): Gross leukemia, C3H/He mice, 2 × 10^6 cells i.v., single i.v. dose day 1 at optimal dose (mg/Kg): DNR 15, DXR 13-16.9, Ib 65, Ia 12.5, IIa 4, Id 6.7, IIc 1; for Toxic death: Gross leukemia-bearing C3H/He mice, autoptic findings, at optimal dose (mg/Kg): DNR 15, DXR 13-16.9, Ib 65, Ia 12.5, IIa 4, Id 6.7, IIc 1; for activity on increase of the survival time of mice, Gross leukemia (in words): mouse, in vivo; for potency on Gross leukemia (in words): among all compounds tested. On the procedure: (§6) The antileukemic activity of Ia and IIa, in comparison with DXR (doxorubicin) and DNR (daunorubicin), was tested against murine P388 and Gross Leukemias.
as §1
^a Experiments were performed in C3H/He mice, inoculated i.v. with 2
(§7) ^b Single i.v. dose on day 1 after tumor inoculum.
(§8) ^c Median survival time of treated mice/median survival time of
^3 Evaluated on the basis of autoptic findings.

Another data set deals with Lewis Lung ca. Put plainly: Effect against Lewis Lung ca. Particulars: for tumor inhibition / T/C (median survival time of treated mice/median survival time of control × 100): C57 B1/6 mice, 10^5 cells i.v., i.v. once a week for three weeks from day 1, optimal dose (mg/Kg): DXR 6-7.5, DNR 8, Ia 7.5, IIa 4; for tumor inhibition: 1 week after last treatment; for tumor growth inhibition, Lewis lung ca. (in words) / survival time of mice, Lewis lung ca. (in words): model sensitive to DXR; for survival time of mice, Lewis lung ca. (in words): versus DXR. The format is in vivo, mouse (C57 B1/6 mice). Here is the method: as §1
^a experiment was performed in C57 B1/6 mice, inoculated i.v. with
as §2
starting on day 1 after tumor transplant
as §4, §5
^d median survival time of treated mice/median survival time of […]

In data set [2] the test system is Human Colon ca. (LoVo/DXR). The data set can be described thus: Effect against Human Colon ca. (LoVo/DXR). The format is in vivo, human (tumor transplanted in Swissnude mice). Particulars: i.v. once a week for three weeks, 1 week after last treatment; optimal dose (mg/Kg): DXR 6, Ia 7.5, IIa 4. On the procedure:
as §1
(§9) ^a experiment was performed in Swissnude mice, transplanted s.c. with
as §2, §3, §4, §5

The test system of another data set is P388 ascitic leukemia. Put plainly: Effect against P388 ascitic leukemia. The format is in vivo, murine (CDF1 mice). Particulars: for T/C % (median survival time of treated mice/median survival time of control × 100): P388, CDF1 mice, 10^6 cells i.v., single i.v. dose day 1 at optimal dose (mg/Kg): DNR 22.5, DXR 16.9, Ia 19.5, IIa 4; for Toxic death: P388-bearing CDF1 mice, autoptic findings, at optimal dose (mg/Kg): DNR 22.5, DXR 16.9, Ia 19.5, IIa 4. On the procedure:
as §6, §1
^a Experiments were performed in CDF1 mice, inoculated i.v. with
as §7, §8
^d Evaluated on the basis of autoptic findings.

In data set [3] the test system is Human Colon adenocarcinoma (LoVo). Put plainly: Effect against Human Colon adenocarcinoma (LoVo). In kind it is in vivo, human (tumor transplanted in Swissnude mice). Particulars: for tumor inhibition: i.v. once a week for three weeks, 1 week after last treatment, optimal dose (mg/Kg): DNR 8 tox, DXR 6, Ia 7.5, IIa 4-5; for activity on LoVo tumor (in words): in vivo. On the procedure: as §1
^1 experiment was performed in Swissnude mice, transplanted s.c. with
as §2, §3, §4, §5

The test system of data set [4] is human lung adenocarcinoma (A549). Put plainly: Effect against human lung adenocarcinoma (A549). The format is in vivo, human (tumor transplanted in Swissnude mice). As to conditions: i.v. once a week for three weeks, 1 week after last treatment; optimal dose (mg/Kg): DXR 6, Ia 9, IIa 5. Here is the method:
as §1, §9, §2, §3, §4, §5

The test system of a further data set is solid tumors. The data set can be described thus: evaluation against different human and solid tumors (Tables 4-8, overall). In kind it is in vivo, human and murine. Particulars: IIa versus Ia. On the procedure:
as §1

As usually defined, the T/C is the result in the treated group divided by that in the control group, in per cent. Take `COc1cccc2c1C(=O)c1c(O)c3c(c(O)c1C2=O)C[C@@](O)(C(=O)CO)C[C@@H]3O[C@H]1C[C@H](N)[C@H](O)[C@H](C)O1` [DXR, doxorubicin, reference compound]: in data set [1], the tumor inhibition was 52% and the T/C stood at 84%. Further, in the data set on murine Gross leukemia, the “T/C % (median survival time of treated mice/median survival time of control × 100)” value is listed as 200-250%; the Toxic death is listed as 0/10; the “activity on increase of the survival time of mice, Gross leukemia (in words)” value is recorded as “active”. In addition, in the data set on Lewis Lung ca., the tumor inhibition is 85-95%; the “T/C (median survival time of treated mice/median survival time of control × 100)” value is recorded as 148-169%; the “tumor growth inhibition, Lewis lung ca. (in words)” value (from here on “tumor growth inhibition”) is “sensitive to DXR”. Besides, the tumor inhibition in data set [2] was 30%. In the data set with P388 ascitic leukemia, the “T/C % (median survival time of treated mice/median survival time of control × 100)” value is recorded as 225% and the Toxic death is listed as 0/10. In addition, the tumor inhibition in data set [3] is recorded as 62%. Also, the tumor inhibition in data set [4] stood at 44%.
For `C[C@@H]1O[C@@H](O[C@H]2C[C@](O)(C(=O)CO)Cc3c(O)c4c(c(O)c32)C(=O)c2ccccc2C4=O)CC[C@H]1N` [IIc, 4-demethoxy-3'-deamino-4'-deoxy-4'-epi-aminodoxorubicin], in the data set with murine Gross leukemia, the “T/C % (median survival time of treated mice/median survival time of control × 100)” value is 217%, the Toxic death is listed as 0/10 and the “potency on Gross leukemia (in words)” value is recorded as “most potent”.
Take `CC(=O)[C@]1(O)Cc2c(O)c3c(c(O)c2[C@@H](O[C@H]2CC[C@@H](N)[C@H](C)O2)C1)C(=O)c1ccccc1C3=O` [Compound IIa, 4-demethoxy-3'-deamino-4'-deoxy-4'-epi-aminodaunorubicin]: in data set [1], the tumor inhibition was found to be 44% and the T/C was 146%. In the data set with murine Gross leukemia, the “T/C % (median survival time of treated mice/median survival time of control × 100)” value is reported as 160%, the Toxic death was 0/10 and the “potency on Gross leukemia (in words)” value is “most potent”. In the data set with Lewis Lung ca., the tumor inhibition amounted to 84%; the “T/C (median survival time of treated mice/median survival time of control × 100)” value worked out at 122%; the “tumor growth inhibition” value was “active, as DXR”; the “survival time of mice, Lewis lung ca. (in words)” value was “less active”. Besides, the “potency and activity against all solid tumors tested (in words)” value in the data set with solid tumors is “more potent and active than Ia”. Further, the tumor inhibition in data set [2] was 41%. Besides, in the data set on P388 ascitic leukemia, the “T/C % (median survival time of treated mice/median survival time of control × 100)” value came out at 225% and the Toxic death is 0/10. Further, in data set [3], the tumor inhibition is given as 54-56% and the “activity on LoVo tumor (in words)” value is listed as “same activity than LoVo/DXR”. The tumor inhibition in data set [4] is listed as 49%.
As for `CC(=O)[C@]1(O)Cc2c(O)c3c(c(O)c2[C@@H](O[C@H]2CC[C@H](N)[C@H](C)O2)C1)C(=O)c1ccccc1C3=O` [Ia, 4-demethoxy-3'-deamino-4'-deoxy-4'-aminodaunorubicin], in the data set on murine Gross leukemia, the “T/C % (median survival time of treated mice/median survival time of control × 100)” value amounted to 240% and the Toxic death was 0/10. Besides, in the data set on Lewis Lung ca., the tumor inhibition stood at 7%; the “T/C (median survival time of treated mice/median survival time of control × 100)” value is reported as 104%; the “tumor growth inhibition” value was “inactive”; the “survival time of mice, Lewis lung ca. (in words)” value was “inactive”. In data set [2], this compound yielded a tumor inhibition of 13%. In the data set with P388 ascitic leukemia, the “T/C % (median survival time of treated mice/median survival time of control × 100)” value is 200% and the Toxic death was 0/10. Besides, in data set [3], the tumor inhibition is 11% and the “activity on LoVo tumor (in words)” value is “completly inactive”. In data set [4], this compound showed a tumor inhibition of 13%.
`COc1cccc2c1C(=O)c1c(O)c3c(c(O)c1C2=O)C[C@@](O)(C(C)=O)C[C@@H]3O[C@H]1CC[C@H](N)[C@H](C)O1` [Ib, 3'-deamino-4'-deoxy-4'-aminodaunorubicin]: in the data set with murine Gross leukemia, the “T/C % (median survival time of treated mice/median survival time of control × 100)” value is recorded as 240% and the Toxic death was 0/10.
In the case of `COc1cccc2c1C(=O)c1c(O)c3c(c(O)c1C2=O)C[C@@](O)(C(=O)CO)C[C@@H]3O[C@H]1CC[C@H](N)[C@H](C)O1` [Id, 3'-deamino-4'-deoxy-4'-aminodoxorubicin], in the data set on murine Gross leukemia, the “T/C % (median survival time of treated mice/median survival time of control × 100)” value was 200% and the Toxic death was 0/10.
As for `COc1cccc2c1C(=O)c1c(O)c3c(c(O)c1C2=O)C[C@@](O)(C(C)=O)C[C@@H]3O[C@H]1C[C@H](N)[C@H](O)[C@H](C)O1` [DNR, daunorubicin, reference compound], in the data set with murine Gross leukemia, the “T/C % (median survival time of treated mice/median survival time of control × 100)” value turned out to be 200%; the Toxic death was 0/10; the “activity on increase of the survival time of mice, Gross leukemia (in words)” value is given as “active”. In addition, in the data set on Lewis Lung ca., the tumor inhibition was 47% and the “T/C (median survival time of treated mice/median survival time of control × 100)” value was determined as 135%. In addition, in the data set with P388 ascitic leukemia, the “T/C % (median survival time of treated mice/median survival time of control × 100)” value is recorded as 222% and the Toxic death is recorded as 0/10. Also, the “toxicity mark at the dose” value in data set [3] (8 mg/Kg i.v. once a week for three weeks, Swissnude mice) is on record as “tox”. This compound registered a tumor inhibition in data set [3] of 54%.
